Test results published in patent US20230233425A1, “USE OF VOLATILE COMPOSITIONS TO LIMIT OR ELIMINATE THE PERCEPTION OF MALODOR” (Firmenich SA, priority 2017, published 2023).
pIC50: −log10 of the molar value. Where two headings read alike, the source gives them in different places.

Tests used:
[1] = target: Olfr738 (Mus musculus, UniProt L7N1X7); experiment: Indole antagonist dose-response, cAMP HTRF in HEK293T, vs indole EC80; type: cell-based; settings: vs indole EC80; for pIC50: Table 22, first listing (r7-r45), read-out: Olfr738 IC50
Sequence of Olfr738 (L7N1X7 entry or part of it): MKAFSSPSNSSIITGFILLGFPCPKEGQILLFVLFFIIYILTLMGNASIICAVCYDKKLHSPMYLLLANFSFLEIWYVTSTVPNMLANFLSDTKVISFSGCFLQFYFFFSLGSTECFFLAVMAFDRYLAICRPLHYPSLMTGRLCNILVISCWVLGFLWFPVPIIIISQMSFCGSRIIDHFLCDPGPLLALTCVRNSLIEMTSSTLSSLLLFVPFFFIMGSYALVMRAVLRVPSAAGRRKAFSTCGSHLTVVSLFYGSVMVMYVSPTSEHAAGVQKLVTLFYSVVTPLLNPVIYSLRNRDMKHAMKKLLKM

[2] = target: Olfr748 (Mus musculus, UniProt E9Q9Z0); experiment: as above; type: cell-based; settings: Table 23
Sequence of Olfr748 (E9Q9Z0 entry or part of it): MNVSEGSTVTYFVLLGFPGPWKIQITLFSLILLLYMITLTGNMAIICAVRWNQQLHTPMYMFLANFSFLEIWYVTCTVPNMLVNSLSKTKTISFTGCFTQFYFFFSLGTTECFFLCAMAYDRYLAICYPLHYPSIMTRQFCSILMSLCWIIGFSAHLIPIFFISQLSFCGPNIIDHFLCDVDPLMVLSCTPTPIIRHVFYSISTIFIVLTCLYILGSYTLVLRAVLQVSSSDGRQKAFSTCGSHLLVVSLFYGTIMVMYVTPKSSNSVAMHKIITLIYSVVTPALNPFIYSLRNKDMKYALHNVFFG

[3] = target: Olfr741 (Mus musculus, UniProt L7N1Y5); experiment: as above; type: cell-based
Sequence of Olfr741 (L7N1Y5 entry or part of it): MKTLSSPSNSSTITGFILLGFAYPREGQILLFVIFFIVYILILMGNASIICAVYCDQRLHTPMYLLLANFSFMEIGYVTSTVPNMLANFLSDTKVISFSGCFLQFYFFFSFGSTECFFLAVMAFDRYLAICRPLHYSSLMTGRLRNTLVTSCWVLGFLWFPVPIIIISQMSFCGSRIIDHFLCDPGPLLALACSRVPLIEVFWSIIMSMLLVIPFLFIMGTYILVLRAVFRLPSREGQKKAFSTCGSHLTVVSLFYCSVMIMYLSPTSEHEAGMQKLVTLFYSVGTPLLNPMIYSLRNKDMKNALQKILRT

[4] = target: Olfr740 (Mus musculus, UniProt E9PV79); experiment: as above; type: cell-based; settings: vs indole EC80; for Emax: HEK-293T, read-out: Olfr740 % Inhibition; for pIC50: Table 22, first listing (r7-r45), read-out: Olfr740 IC50
Sequence of Olfr740 (E9PV79 entry or part of it): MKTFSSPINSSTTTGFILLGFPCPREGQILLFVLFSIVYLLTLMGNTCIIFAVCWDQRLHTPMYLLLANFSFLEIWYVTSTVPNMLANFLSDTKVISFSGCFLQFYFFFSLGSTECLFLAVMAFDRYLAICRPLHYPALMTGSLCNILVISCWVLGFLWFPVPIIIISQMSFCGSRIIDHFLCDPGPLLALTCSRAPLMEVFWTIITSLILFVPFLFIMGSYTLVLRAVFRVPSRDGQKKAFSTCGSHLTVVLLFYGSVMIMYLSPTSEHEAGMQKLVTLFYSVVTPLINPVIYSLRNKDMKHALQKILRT

[5] = target: Olfr742 (Mus musculus, UniProt A2RTP5); experiment: as above; type: cell-based; settings: vs indole EC80; for Emax: HEK-293T, read-out: Olfr742 % Inhibition
Sequence of Olfr742 (A2RTP5 entry or part of it): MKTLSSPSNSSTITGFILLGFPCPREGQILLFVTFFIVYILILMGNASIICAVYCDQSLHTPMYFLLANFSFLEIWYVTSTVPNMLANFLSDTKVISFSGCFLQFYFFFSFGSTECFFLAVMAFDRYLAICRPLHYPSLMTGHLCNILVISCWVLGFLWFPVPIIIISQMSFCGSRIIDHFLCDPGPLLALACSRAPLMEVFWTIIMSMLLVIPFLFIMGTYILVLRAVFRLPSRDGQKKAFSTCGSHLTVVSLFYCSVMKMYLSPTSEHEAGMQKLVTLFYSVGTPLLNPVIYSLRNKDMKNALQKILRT

[6] = target: Olfr739 (Mus musculus, UniProt E9Q1P0); experiment: as above; type: cell-based; settings: for pIC50: Table 22, first listing (r7-r45)
Sequence of Olfr739 (E9Q1P0 entry or part of it): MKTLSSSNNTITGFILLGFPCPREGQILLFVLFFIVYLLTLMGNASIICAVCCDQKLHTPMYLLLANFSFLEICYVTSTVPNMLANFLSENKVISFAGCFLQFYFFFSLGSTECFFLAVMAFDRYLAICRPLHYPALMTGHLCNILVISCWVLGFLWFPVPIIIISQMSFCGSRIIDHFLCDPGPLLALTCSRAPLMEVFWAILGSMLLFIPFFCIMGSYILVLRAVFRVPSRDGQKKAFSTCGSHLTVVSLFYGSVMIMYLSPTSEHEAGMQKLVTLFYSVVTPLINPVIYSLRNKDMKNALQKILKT
Protocol: (§1) Functional dose-response experiments were performed to identify compounds capable of antagonizing indole-sensitive receptors previously identified (U.S. Pat. No. 9,914,760 B2). Using a cell-based assay, mouse receptor Olfr738, Olfr739, Olfr740, Olfr741, 0fr742, Olfr743, Olfr744, Olfr746, Olfr748 and Olfr749 were tested in an HEK293T cell line wherein the endogenous RTP1 gene has been activated and the odorant receptor chaperone was expressed (described in WO2016201153A1). The receptor genes were tagged with a Flag-Rho tag combination. Receptor genes were co-transfected with the canonical olfactory human G-protein alpha subunit Golf gene. Co-expression of the human Golf activates the Gs transduction pathway that leads to an internal cAMP increase upon binding to the appropriate ligand (indole here). Odorant-induced activity was detected by measuring the cAMP increase in the cytosol using an HTRF based kit (CisBio, cAMP dynamic 2 kit, cat. 62AM4PEJ). The receptors were exposed to binary mixtures of increasing concentrations of the test compounds in the presence of a potent activation concentration of indole (EC80) for each receptor. […] All the compounds listed decreased the indole induced activity of at least one receptor.

[7] = target: Olfr743 (Mus musculus, UniProt L7N1Y2); experiment: as above; type: cell-based; settings: Table 23
Sequence of Olfr743 (L7N1Y2 entry or part of it): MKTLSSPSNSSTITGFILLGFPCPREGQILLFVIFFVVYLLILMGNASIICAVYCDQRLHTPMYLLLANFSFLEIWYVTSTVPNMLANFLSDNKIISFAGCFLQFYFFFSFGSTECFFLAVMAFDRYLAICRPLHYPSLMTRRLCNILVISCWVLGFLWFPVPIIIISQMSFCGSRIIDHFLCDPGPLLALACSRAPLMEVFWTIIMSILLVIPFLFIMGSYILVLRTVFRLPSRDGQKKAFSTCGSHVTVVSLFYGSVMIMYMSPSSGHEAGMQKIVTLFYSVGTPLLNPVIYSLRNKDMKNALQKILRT
Protocol: as §1

[8] = target: T1, Olfr744 (Mus musculus, UniProt Q7TRM0); experiment: as above; type: cell-based; settings: Table 23
T1 construct: Flag; Rho tag; expressed in transfected cells
T1 sequence (Q7TRM0 1-323): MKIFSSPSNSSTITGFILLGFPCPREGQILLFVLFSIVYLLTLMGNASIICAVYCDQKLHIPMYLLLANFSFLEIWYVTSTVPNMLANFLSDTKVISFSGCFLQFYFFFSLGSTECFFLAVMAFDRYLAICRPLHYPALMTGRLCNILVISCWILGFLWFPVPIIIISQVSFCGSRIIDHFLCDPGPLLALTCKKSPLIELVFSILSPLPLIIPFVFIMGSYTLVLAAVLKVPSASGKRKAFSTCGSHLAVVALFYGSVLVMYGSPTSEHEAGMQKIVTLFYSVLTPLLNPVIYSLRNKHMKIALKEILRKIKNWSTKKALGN
Protocol: as §1

[9] = target: T2, Olfr749 (Mus musculus, UniProt E9Q438); experiment: as above; type: cell-based; settings: Table 23
T2 construct: Flag; Rho tag; expressed in transfected cells
T2 sequence (E9Q438 1-313): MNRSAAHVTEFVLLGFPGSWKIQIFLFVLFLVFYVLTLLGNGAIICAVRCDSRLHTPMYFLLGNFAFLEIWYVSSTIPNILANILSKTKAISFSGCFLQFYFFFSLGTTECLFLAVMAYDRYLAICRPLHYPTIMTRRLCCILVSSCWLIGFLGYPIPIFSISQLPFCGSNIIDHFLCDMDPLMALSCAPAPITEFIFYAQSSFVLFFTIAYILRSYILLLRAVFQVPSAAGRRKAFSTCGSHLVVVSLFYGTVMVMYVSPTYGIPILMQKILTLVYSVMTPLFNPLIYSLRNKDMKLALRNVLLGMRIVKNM
Protocol: as §1

[10] = target: T3, Olfr746 (Mus musculus, UniProt E9Q840); experiment: as above; type: cell-based; settings: Table 23
T3 construct: Flag; Rho tag; expressed in transfected cells
T3 sequence (E9Q840 1-314): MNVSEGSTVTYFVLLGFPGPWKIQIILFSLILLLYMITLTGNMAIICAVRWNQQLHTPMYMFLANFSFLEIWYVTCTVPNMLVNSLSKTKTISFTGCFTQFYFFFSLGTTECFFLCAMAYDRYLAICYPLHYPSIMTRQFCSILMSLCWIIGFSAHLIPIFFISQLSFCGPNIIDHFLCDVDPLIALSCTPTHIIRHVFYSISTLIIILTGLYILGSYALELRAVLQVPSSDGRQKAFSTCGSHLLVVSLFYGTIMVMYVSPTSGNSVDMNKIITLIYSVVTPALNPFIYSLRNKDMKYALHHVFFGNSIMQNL
Protocol: as §1

[11] = target: T4, OR51E1 olfactory receptor (Homo sapiens, UniProt Q8TCB6); experiment: Butyric acid olfactory receptor antagonist cell-based dose-response vs butyric acid EC80; settings: Table 20, spiro analogues; for Emax: read-out: Inhibition (%)
T4 construct: expressed in transfected cells
T4 sequence (Q8TCB6 1-318): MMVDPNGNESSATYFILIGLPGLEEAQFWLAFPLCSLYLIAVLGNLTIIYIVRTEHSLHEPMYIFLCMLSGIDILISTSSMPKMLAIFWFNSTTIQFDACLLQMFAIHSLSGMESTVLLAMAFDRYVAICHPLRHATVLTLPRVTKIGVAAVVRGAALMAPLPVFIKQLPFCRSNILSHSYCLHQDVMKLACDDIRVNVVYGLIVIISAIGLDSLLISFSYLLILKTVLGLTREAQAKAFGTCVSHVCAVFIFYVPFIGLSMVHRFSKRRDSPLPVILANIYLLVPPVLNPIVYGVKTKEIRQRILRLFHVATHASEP

[12] = tested on: butyric acid malodor perception; experiment: Human sensory panel, perceived intensity of butyric acid; type: in vivo; settings: Table 20
Protocol: The pleasantness of the compounds delivered alone (triangles, dashed-line) and in a mixture with butyric acid at isointense concentrations (squares, solid line). Many of these compounds are shown to inhibit the activity of a butyric acid olfactory receptor.
Malodor receptor antagonist systems and compositions were evaluated at a gas phase concentration of 3.4 microg/1 air. The sensory method to evaluate compositions required the use of specially designed air dilution olfactometers to achieve well controlled and stable gas phase concentrations of the compositions and of the malodor to the group of test subjects.
The 30 subjects first evaluated the malodor reconstitution alone and then rated the 3 attributes “Freshness”, “Pleasantness” and “malodor” (the malodor character) on a 0 to 10 scale. The next evaluation was performed 30 seconds later to avoid odor adaptation, the malodor reconstitution was injected together with the test composition in the olfactometer. Ratings for the same descriptors recorded.

[13] = tested on: 1-octen-3-ol mushroom/earthy/fungal odor perception; experiment: Human sensory performance of test compounds with and without 1-octen-3-ol; type: in vivo; settings: Test Compound Only
[14] = tested on: geonol earthy/moss odor perception; experiment: Human sensory performance of test compounds with and without geonol; type: in vivo; settings: Test Compound Only
Outline: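 Panelists first learned the earthy/moss quality from a geonol-only reference, then rated pleasantness, earthy/moss intensity and overall intensity of geonol alone, antagonist alone, and geonol mixed with isointense or low-intensity antagonist on a 0-10 linear scale. Samples were presented in glass jars in randomized order with two-minute intervals.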

[15] = tested on: OR2W1 or the OR1A1 olfactory receptor; experiment: 1-octen-3-ol olfactory receptor antagonist cell-based dose-response vs 1-octen-3-ol EC80
Text: Each cell line was screened with a volatile compound library for their inhibitory properties and potential 1-octen-3-ol smell inhibition.
Single concentration monitoring of the 1-octen-3-ol induced cell activity in the presence or absence of a test compound allowed for the identification of compounds with a putative suppression or inhibitory effect.

[16] = tested on: geonol receptors Olfr339, Olfr1487, Olfr1A1, OR11A1, Olfr96; experiment: Antagonists of geonol receptors (Example 11); type: cell-based, mouse and human; set-up: Inhibition(%): concentration or dose not given beside the values; settings: Table 18
[17] = Table 22, second listing of the same compounds

## C=C1CC[C@H]2O[C@]2(C)CC[C@@H]2[C@@H]1CC2(C)C
[1]
  pIC50: 4.74
[1]; Table 22, first listing
  Olfr738 % Inhibition: 54.69%
[1]; [17]
  Olfr738 % Inhibition: 38.36%
[2]
  pIC50: 3.92
  Olfr748 % Inhibition: 9.24%
[3]; Table 22, first listing
  pIC50: 3.97
  Olfr741 % Inhibition: 59.56%
[3]; [17]
  pIC50: 3.92
  Olfr741 % Inhibition: 9.24%
[4]; Table 22, first listing
  Emax: 203%
[4]; [17]
  Emax: 13.2%
[4]
  pIC50: 4.87
[5]; Table 22, first listing
  Emax: 63%
[5]; [17]
  Emax: 91.7%
[5]; Table 22, first listing (r7-r45), read-out: Olfr742 IC50
  pIC50: 4.00
[6]; Table 22, first listing
  Olfr739 % Inhibition: 102.21%
[6]
  pIC50: 4.71
[6]; [17]
  Olfr739 % Inhibition: 55.20%
[7]
  pIC50: 3.72
  Olfr743 % Inhibition: 38.36%
[8]
  pIC50: 3.95
  Olfr744 % Inhibition: 55.20%
[9]
  pIC50: 4.21
  Olfr749 % Inhibition: 91.71%
[10]
  pIC50: 4.07
  Olfr746 % Inhibition: 13.17%

## CC(=O)OC1C(C)(C)CCCC12C(C)C=CCC2C (stereo not drawn)
[11]
  pIC50: 4.14
  Emax: 72%
[12]
  Sensory Performance (%): 43%

## CC(=O)OC1C(C)(C)CCCC12CC(C)C(C)C2 (stereo not drawn)
[11]
  pIC50: 4.29
  Emax: 62%
[12]
  Sensory Performance (%): 50%

## CC1(C)CCC[C@]2(C)CC(=O)CC[C@@H]12 (racemic) [(+−)-perhydro-5,5,8A-trimethyl-2-trans-naphthalenone]
[13]
  % Mushroom/Earthy/Fungal Odor: 30.80%
[14]
  % Earthy/Moss Odor: 45.20%
[15]; 1-octen-3-ol at EC80
  pIC50: 4.20
[15]; maximum inhibition normalized to baseline agonist activity
  % Inhibition: 102.97%
[1]
  pIC50: 5.56
[1]; Table 22, first listing
  Olfr738 % Inhibition: 101.72%
[2]
  pIC50: 3.97
  Olfr748 % Inhibition: 65.60%
[3]; Table 22, first listing
  pIC50: 3.83
  Olfr741 % Inhibition: 96.86%
[4]; Table 22, first listing
  Emax: 127%
[4]
  pIC50: 5.71
[6]; Table 22, first listing
  Olfr739 % Inhibition: 68.44%
[6]
  pIC50: 4.86
[7]
  pIC50: 3.58
  Olfr743 % Inhibition: 123.10%
[8]
  pIC50: 4.13
  Olfr744 % Inhibition: 107.89%
[9]
  pIC50: 4.38
  Olfr749 % Inhibition: 96.98%
[10]
  pIC50: 3.51
  Olfr746 % Inhibition: 81.36%
[16]
  pIC50: 4.01
  Inhibition(%): 71%

## C=C(C)CC1(CC(=C)C)CCCC(C)(C)C1=O [2,2-dimethyl-6,6-bis(2-methylprop-2-enyl)cyclohexan-1-one]
[11]
  pIC50: 4.33
  Emax: 103%
[12]
  Sensory Performance (%): 50%

## CC1=C(C)CC2(CCCC(C)(C)C2O)C1 (stereo not drawn) [2,3,9,9-tetramethylspiro[4.5]dec-2-en-10-ol]
[11]
  pIC50: 4.10
  Emax: 16%
[12]
  Sensory Performance (%): 60%

## CC1=C(C)CC2(CCCC(C)(C)C2=O)C1 [2,3,9,9-tetramethylspiro[4.5]dec-2-en-10-one]
[12]
  Sensory Performance (%): 56%

## CC(=O)OC1C(C)(C)CCCC12CC(C)=C(C)C2 (stereo not drawn) [(2,3,9,9-tetramethylspiro[4.5]dec-2-en-10-yl) acetate]
[11]
  pIC50: < 3.22
  Emax: 116%
[12]
  Sensory Performance (%): 40%
